# Literature values, collected in patent US9364565B2, “Medical device with coating for capturing genetically-altered cells and methods of using same” (OrbusNeich Medical, Inc., priority 2000, dated 2016).
# Key:
# VEGFR-2 = VEGFR-2 (Homo sapiens, UniProt P35968)
# endothelial cells = conditions: 100 μg
# Chain of VEGFR-2 (P35968 20-1356): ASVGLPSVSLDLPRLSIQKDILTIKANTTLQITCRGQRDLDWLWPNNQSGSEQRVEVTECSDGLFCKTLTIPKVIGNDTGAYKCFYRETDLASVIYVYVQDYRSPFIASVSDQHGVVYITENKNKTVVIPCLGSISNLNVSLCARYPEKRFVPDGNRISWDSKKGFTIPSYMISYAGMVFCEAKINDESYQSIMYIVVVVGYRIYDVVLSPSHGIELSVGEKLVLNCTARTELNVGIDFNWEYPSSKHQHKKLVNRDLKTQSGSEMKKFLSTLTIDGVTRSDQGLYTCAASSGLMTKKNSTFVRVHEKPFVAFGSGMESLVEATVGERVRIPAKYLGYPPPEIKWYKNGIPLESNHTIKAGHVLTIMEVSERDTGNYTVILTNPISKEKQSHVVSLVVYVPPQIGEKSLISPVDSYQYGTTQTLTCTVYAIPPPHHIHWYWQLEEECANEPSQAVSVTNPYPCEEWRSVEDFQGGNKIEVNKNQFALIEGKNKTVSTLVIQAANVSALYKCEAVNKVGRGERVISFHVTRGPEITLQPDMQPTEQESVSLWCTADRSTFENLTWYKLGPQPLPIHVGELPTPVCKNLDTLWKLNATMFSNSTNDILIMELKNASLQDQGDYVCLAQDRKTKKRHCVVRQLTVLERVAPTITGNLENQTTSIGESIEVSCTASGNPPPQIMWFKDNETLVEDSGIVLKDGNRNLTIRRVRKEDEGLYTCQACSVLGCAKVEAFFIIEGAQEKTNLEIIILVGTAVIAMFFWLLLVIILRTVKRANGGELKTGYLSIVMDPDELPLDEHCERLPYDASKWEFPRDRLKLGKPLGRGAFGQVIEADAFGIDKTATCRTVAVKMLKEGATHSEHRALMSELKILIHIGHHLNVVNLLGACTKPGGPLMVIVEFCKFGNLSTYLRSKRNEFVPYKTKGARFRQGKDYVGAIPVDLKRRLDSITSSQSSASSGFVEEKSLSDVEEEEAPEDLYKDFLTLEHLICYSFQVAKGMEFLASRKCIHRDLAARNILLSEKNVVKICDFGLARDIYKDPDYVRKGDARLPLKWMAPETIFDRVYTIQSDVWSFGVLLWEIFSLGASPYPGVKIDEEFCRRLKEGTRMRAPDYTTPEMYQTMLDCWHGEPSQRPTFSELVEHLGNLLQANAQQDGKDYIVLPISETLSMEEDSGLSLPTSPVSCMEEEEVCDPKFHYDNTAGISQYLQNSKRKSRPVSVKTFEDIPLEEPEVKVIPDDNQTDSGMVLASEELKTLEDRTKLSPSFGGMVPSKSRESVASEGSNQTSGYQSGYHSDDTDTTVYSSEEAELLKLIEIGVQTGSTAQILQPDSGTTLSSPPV
binding to VEGFR-2 (VEGFR-2),Compound,adherence of endothelial cells on a medical device (endothelial cells)
bind to VEGFR-2,Cc1[nH]c(/C=C2\C(=O)Nc3ccccc32)c(C)c1CCC(=O)O [SU6668],
,VEGF,stimulate the adherence of endothelial cells on a medical device
